# Experimental data taken from patent publication US20080293699A1, “Inhibitors of thapsigargin-induced cell death” (priority 2007, published 2008).
# “Also recorded” adds a separate entry of the source.
# Columns and labels:
# CSM14.1 cells = experiment: Pathway selectivity: cell death induced by VP16, TNF plus cycloheximide or staurosporine in CSM14.1 cells; type: cell-based, rat; details: 25 μM, ATP content where stated
# Procedure: The selectivity of compounds with respect to suppression of cell death induced by ER stress was determined by treating undifferentiated CSM14.1 cells with a variety of agents that induce apoptosis via the ER stress pathway (thapsigargin, tunicamycin), the mitochondrial pathway (VP16) or the death receptor pathway (TNF+cycloheximide [CHX]). Of the 26 hit compounds tested, 19 reduced cell death induced by thapsigargin and tunicamycin but not VP16 or TNF/CHX.
# For the experiments shown in FIG. 18, undifferentiated CSM 14.1 cells were plated at 3,000 cells per well in 96-well plates (for the ATP assay) or at 1×10^4 cells per well in 24-well plates (for flow cytometry). The next day, cells were treated with DMSO (0.5%) or hit compounds 25 μM of a compound with 0.5% DMSO final concentration) for two hours, followed by treatment with various cell death-inducing reagents, including 15 μM Thapsigargin (TG) for 24 hrs, 10 μg/mL tunicamycin (TU) for 72 hrs, 2.5 μM staurosporine (STS) for 24 hrs, 50 μM VP16 for 48 hrs, or 30 ng/mL TNF plus 10 μg/mL cyclohexamide (CHX) for 24 hrs. Cellular ATP content was measured for staurosporine samples and TNF/CHX samples, normalizing data relative to cells treated with DMSO alone (the control) and presenting as a percentage of control. For measuring cell death resulting from treatment with tunicamycin and VP16, flow cytometry was used. All assays were performed in triplicate (mean ±SD).
# [1] = test system: HeLa human cervical cancer; experiment: Thapsigargin-induced death of HeLa cells, ATP content assay; type: cell-based
# Procedure: In addition to CSM14.1 cells, when tested at 25 μM, Compound 5962123 protected by >50% against thapsigargin-induced death of several tumor cell lines (HeLa human cervical cancer, SW1 melanoma cell, PPC1, human prostate cancer), mouse neural stem cell C17.2 (both differentiated [neuronal phenotype] and non-differentiated [stem cell phenotype]) as determined by ATP content assay, and primary rat cortical neurons as determined by microscopy assay measuring the percentage of NeuN-immunopositive cells with either normal or apoptotic nuclear morphology (Hoechst dye staining).
# For PC12, cells were stimulated with 20 ng/ml NGF for five days; for C17.2, cells were stimulated with serum reduction, and 1% N2 incubation for three days; for CSM14.1, cells were cultured at 39° C. for 5-7 days.
# ASK1 = target: T1, ASK1 (Homo sapiens, UniProt Q99683); experiment: ASK1 autophosphorylation in vitro kinase assay; type: biochemical; details: up to 50 μM, listed as CID-2878746
# T1 construct: expressed in transfected cells; host or cells: HEK293T
# T1 sequence (Q99683 1-1374): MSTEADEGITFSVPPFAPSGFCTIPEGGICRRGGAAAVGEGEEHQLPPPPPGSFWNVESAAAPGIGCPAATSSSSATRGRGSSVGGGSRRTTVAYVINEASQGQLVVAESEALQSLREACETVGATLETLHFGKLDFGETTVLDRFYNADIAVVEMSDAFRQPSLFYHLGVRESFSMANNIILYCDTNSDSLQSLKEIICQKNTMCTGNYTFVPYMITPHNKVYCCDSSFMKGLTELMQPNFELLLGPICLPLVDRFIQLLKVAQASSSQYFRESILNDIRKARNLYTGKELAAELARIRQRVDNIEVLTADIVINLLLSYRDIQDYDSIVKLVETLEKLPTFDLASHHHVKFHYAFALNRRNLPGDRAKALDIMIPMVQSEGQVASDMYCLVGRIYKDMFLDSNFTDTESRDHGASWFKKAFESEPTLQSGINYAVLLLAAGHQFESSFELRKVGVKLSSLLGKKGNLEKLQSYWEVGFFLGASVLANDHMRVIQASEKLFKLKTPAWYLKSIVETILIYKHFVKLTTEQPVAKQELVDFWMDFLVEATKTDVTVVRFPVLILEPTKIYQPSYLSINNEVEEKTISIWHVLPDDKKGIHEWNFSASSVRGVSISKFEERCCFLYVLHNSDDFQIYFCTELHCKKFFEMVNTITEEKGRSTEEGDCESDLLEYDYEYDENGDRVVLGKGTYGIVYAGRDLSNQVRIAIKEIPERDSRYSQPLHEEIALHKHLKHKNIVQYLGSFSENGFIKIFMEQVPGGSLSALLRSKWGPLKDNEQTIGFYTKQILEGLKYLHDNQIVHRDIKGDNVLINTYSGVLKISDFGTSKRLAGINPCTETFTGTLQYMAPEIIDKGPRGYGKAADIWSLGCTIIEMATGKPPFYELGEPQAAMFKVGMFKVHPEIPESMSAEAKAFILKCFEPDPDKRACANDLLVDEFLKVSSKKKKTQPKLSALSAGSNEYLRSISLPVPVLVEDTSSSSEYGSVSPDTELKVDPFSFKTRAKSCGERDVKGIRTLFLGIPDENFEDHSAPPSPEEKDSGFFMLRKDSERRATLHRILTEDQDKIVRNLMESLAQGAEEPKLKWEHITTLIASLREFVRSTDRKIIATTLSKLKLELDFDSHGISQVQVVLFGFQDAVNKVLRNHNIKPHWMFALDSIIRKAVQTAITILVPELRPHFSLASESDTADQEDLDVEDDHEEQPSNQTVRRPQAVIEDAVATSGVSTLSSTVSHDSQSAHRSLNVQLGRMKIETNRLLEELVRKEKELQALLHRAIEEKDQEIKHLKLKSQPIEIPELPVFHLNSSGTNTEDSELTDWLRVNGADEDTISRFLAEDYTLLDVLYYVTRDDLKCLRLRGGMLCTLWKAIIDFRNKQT
# Procedure: Suppression of thapsigargin-induced phosphorylation of p38MAPK was also measured by a quantitative ELISA-methods, with IC50 for p38MAPK phosphorylation estimated at <5 μM. In contrast, thapsigargin-induced expression of CHOP, expression of ATF4, proteolytic processing of ATF6, phosphorylation of eIF2a (Ser 51), auto-phosphorylation of Ire1a or auto-phosphorylation of ASK1 were not inhibited directly by CID-2878746 at concentrations up to 50 μM tested by in vitro kinase assay using p32-γ-ATP substrate. […] Thapsigargin-induced reductions in phosphorylation of ASK1 at the serine 967 site in ASK1 transfected 293T cells are inhibited by compound 5962123 at concentrations of 50-100 μM, as determined by immunoblotting using anti-phospho-specific (ser 967) antibody, but thapsigargin-induced changes in phosphorylation of ASK1 at ser 83 and thr 845 are not modulated by compound 5962123 at concentrations as high as 100 μM in ASK1-transfected HEK293T cells.
structure (smiles),measurement,setting,value
"CCN(CC)c1ccc(C2Nc3ccccc3NC3=C2C(=O)CC(c2ccccc2)C3)cc1 (stereo not shown) [Compound 5962123, 6-(4-diethylaminophenyl)-9-phenyl-5,6,8,9,10,11-hexahydrobenzo[c][1,5]benzodiazepin-7-one]",Inhibition of cell death induced by TNF-α plus cycloheximide,CSM14.1 cells,does not inhibit; also recorded: not active
same,Inhibition of cell death induced by VP-16,CSM14.1 cells,does not inhibit; also recorded: not active
same,Inhibition of cell death induced by staurosporine,CSM14.1 cells,does not inhibit; also recorded: not active
same,"Protection against thapsigargin-induced death, HeLa","[1]; 25 μM, ATP content assay",> 50%
same,Cytoprotective activity in thapsigargin-treated HeLa,[1]; ATP content assay,demonstrated
same,"Cytoprotective activity, HeLa (Result)","[1]; thapsigargin 15 μM, ATP content, compound ≦25 μM",+ (+indicates >50% rescue of cell viability relative to untreated cells not exposed to thapsigargin at compound concentration of ≦25 μM)
same,ASK1 autophosphorylation,ASK1,not inhibited
